Measurements taken from ChEMBL document CHEMBL1137597, “Evolution of thiazolidine-based blockers of human Kv1.5 for the treatment of atrial arrhythmias” (Bioorg Med Chem Lett, 2007).

Tests used:
[1] = target: T1, Potassium voltage-gated channel subfamily A member 5 (Homo sapiens, UniProt P22460); test: Inhibition of ultra-rapid delayed rectifier current Ikur in human atrial cells at 1uM; format: functional, cell-based; conditions: Cardiac atrium
[2] = target: T1, Potassium voltage-gated channel subfamily A member 5; test: Inhibition of Kv1.5 mediated ultra-rapid delayed rectifier current Ikur in human atrial cells; format: functional, cell-based, Cardiac atrium
[3] = Percent oxidation in rat S9 microsomal fraction; format: ADME; conditions: read-out: Oxidation

T1 sequence (P22460 whole entry): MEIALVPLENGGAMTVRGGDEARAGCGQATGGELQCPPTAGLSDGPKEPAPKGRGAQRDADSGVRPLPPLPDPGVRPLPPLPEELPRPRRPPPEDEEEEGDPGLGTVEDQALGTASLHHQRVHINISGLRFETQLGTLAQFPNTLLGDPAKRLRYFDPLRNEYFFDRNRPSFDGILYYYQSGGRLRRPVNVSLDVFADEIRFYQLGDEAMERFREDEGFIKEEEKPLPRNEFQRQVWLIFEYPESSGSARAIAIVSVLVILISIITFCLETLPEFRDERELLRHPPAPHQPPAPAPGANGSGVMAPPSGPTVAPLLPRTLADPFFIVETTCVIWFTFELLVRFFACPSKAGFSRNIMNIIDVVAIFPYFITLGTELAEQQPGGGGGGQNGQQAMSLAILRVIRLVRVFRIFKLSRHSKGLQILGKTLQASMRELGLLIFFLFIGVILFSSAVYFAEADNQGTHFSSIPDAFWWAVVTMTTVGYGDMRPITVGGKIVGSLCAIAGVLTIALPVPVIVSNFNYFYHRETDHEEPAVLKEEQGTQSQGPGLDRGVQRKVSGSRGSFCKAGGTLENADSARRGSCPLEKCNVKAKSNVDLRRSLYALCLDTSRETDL

| inhibition [1] | IC50 [2] | metabolised [3] | Structure (SMILES) |
| --- | --- | --- | --- |
| 35% | – | – | COc1ccc(C2SCCN2C(=O)COc2ccccc2)cc1Cl (stereo not drawn) |
| 77% | 463 nM | – | O=C1CSC(c2ccc(Cl)c(Cl)c2)N1OCc1ccccc1 (stereo not drawn) |
| 68% | – | – | COc1ccc(CCCC(=O)N2CCSC2c2ccc(C)c(C)c2)cc1 (stereo not drawn) |
| 92% | 177 nM | – | COc1ccccc1CON1C(=O)CSC1c1ccc(C)c(C)c1 (stereo not drawn) |
| 55% | – | – | CN(C)c1ccc(C2SCCN2C(=O)COc2ccccc2)cc1 (stereo not drawn) |
| 95% | – | – | Cc1ccc(C2SCCN2C(=O)COc2ccccc2)cc1C (stereo not drawn) |
| 35% | 997 nM | – | O=C1CSC(c2ccc(Cl)cc2)N1OCc1ccccc1 (stereo not drawn) |
| 96% | 69 nM | – | COc1ccc(CCN2C(=O)CSC2(C)c2ccc(C)c(C)c2)cc1 (stereo not drawn) |
| 75% | 269 nM | – | COc1cccc(CON2C(=O)CSC2c2ccc(C)c(C)c2)c1 (stereo not drawn) |
| – | – | 100% | COc1ccc(CC(=O)N2CCSC2c2ccc(Cl)c(Cl)c2)cc1 (stereo not drawn) |
| 25% | – | – | COc1ccccc1CON1C(=O)CSC1c1ccc(Cl)cc1 (stereo not drawn) |
| 77% | 537 nM | – | COc1ccc(CC(=O)N2CCSC2c2ccc(C)c(C)c2)cc1 (stereo not drawn) |
| 92% | 207 nM | – | Cc1ccc(C2SCC(=O)N2OCc2ccccc2)cc1C (stereo not drawn) |
| 64% | – | – | O=C(COc1ccccc1)N1CCSC1c1ccc(C2CC2)cc1 (stereo not drawn) |
| – | 204 nM | – | COc1ccccc1CON1C(=O)CSC1c1ccc(Cl)c(Cl)c1 (stereo not drawn) |
| 72% | – | – | COc1ccc(C2SCCN2C(=O)COc2ccccc2)cc1 (stereo not drawn) |

| inhibition [1] | IC50 [2] | metabolised [3] | Structure (SMILES) |
| --- | --- | --- | --- |
| 66% | 812 nM | – | COc1ccc(CCN2C(=O)CSC23CCc2cc(Cl)ccc23)cc1 (stereo not drawn) |
| 18% | – | – | Cc1ccc(C2SCCN2C(=O)OCc2ccccc2)cc1C (stereo not drawn) |
| 87% | – | – | Cc1ccc(C2SCCN2C(=O)CCc2ccccc2)cc1C (stereo not drawn) |
| – | 95 nM | – | COc1ccc(CON2C(=O)CSC2c2ccc(C)c(C)c2)cc1 (stereo not drawn) |
| 92% | – | – | COc1ccc(/C=C/C(=O)N2CCSC2c2ccc(C)c(C)c2)cc1 (stereo not drawn) |
| 93% | – | – | O=C(COc1ccccc1)N1CCSC1c1ccc(Cl)c(Cl)c1 (stereo not drawn) |
| 80% | – | – | Cc1ccc(C2SCCN2C(=O)COc2ccccc2)cc1 (stereo not drawn) |
| 89% | 150 nM | – | COc1ccc(CCC(=O)N2CCSC2c2ccc(C)c(C)c2)cc1 (stereo not drawn) |
| 88% | 390 nM | – | COc1ccc(CCN2C(=O)CSC2(C)c2ccc(C)cc2)cc1 (stereo not drawn) |
| – | 179 nM | – | COc1cccc(CON2C(=O)CSC2c2ccc(Cl)c(Cl)c2)c1 (stereo not drawn) |
| 61% | 487 nM | – | COc1ccc(CCN2C(=O)CSC23CCc2c(C)cccc23)cc1 (stereo not drawn) |
| – | 924 nM | – | COc1ccc(CON2C(=O)CSC2c2ccccc2)cc1 (stereo not drawn) |
| 92% | 113 nM | – | COc1ccc(CON2C(=O)CSC2c2ccc(Cl)c(Cl)c2)cc1 (stereo not drawn) |
| – | 187 nM | – | COc1ccc(CON2C(=O)CSC2c2ccc(Cl)cc2)cc1 (stereo not drawn) |
| – | 380 nM | – | COc1cccc(CON2C(=O)CSC2c2ccc(Cl)cc2)c1 (stereo not drawn) |
